How the values were obtained:
[1] = test system: N-formyl peptide receptor; experiment: HL-60 differentiation: N-formyl peptide receptor expression (flow cytometry); format: cell-based; settings: compactin-treated cells
Protocol: (§1) HL-60 cells were maintained in stationary culture in RPMI 1640 medium (Gibco, Grand Island, NY) containing 10% fetal bovine serum at 37° C in an atmosphere of 95 air and 5% CO2. The cells (about 8×10^5 /ml) were differentiated into neutrophil-like cells by treatment with 1.3% DMSO for six days (Harris, et al., J. Leukocyte Biol. 37: 407-422 (1985)). The cells were treated with the indicated levels of compactin or lovastatin by addition of a 1,000-fold concentrated stock solution to the appropriate concentration on day 4 of differentiation. […]
(§2) Cell viability was determined by uptake of propidium iodide (537-059; Calbiochem-Behring Corp., La Jolla, CA), detected from the emission fluorescence at 625/35 nm using a DM560 dichronic mirror (Krishan, J. Cell. Biol. 66: 188-192 (1975)). Expression of N-formyl peptide receptor was determined using fluorescein-labeled N-CHONle-Leu-Phe-Nle-Tyr-Lys (Molecular Probes, Inc., Eugene, OR) essentially by the method of Sklar and Finney (Sklar and Finney, Cytometry 3: 161-165 (1982)). Specificity of ligand binding was determined in the presence of 4 mM unlabeled T-boc peptide. […]
(§3) HL-60 differentiation was assessed using two distinct markers: appearance of N-formyl peptide receptors and appearance of the CD14 antigen.

[2] = test system: CD14 antigen; experiment: HL-60 differentiation: CD14 antigen expression (flow cytometry); format: cell-based; settings: compactin-treated cells
Protocol: as §1, §2, §3

[3] = test system: NADPH oxidase; experiment: Cell-free O2- formation by subcellular fractions from compactin-treated HL-60 cells, complemented with human neutrophil fractions, SDS-initiated; format: biochemical; settings: for Rate of O2 formation / Rate, percent of respective untreated HL-60 sample: 10 μM
Protocol: The cells were then pelleted and resuspended in 10 mM Pipes pH 7.3, 100 mM KCl, 3 mM NaCl, 1 mM ATP, 3.5mM MgCl2 (Relax buffer) plus 100U aprotonin/ml, 1 mM PMSF, and 0.34M sucrose to a final concentration of about 1×10^8 /ml. […] Louis, MO), 6.25 mM MgCl2, 93 mM KCl, 2.8 mM NaCl, 9.3 mM Pipes pH 7.3, 0.8mM ATP, 0.16 mM NADPH, 10 μM GTPgammaS, 225 μg HL-60 cytosol, or 250 μg ([…]; cell equivalents) of human neutrophil cytosol and ±300μg/ml SOD (Sigma Chemical Co., St. Louis, MO). After a three-minute equilibration at 25° C., the formation of O2 --was initiated by the addition of 100 μM SDS. O2 --generation was monitored continuously as the SOD-sensitive reduction of cytochrome c at 550 nm. Human neutrophil plasma membranes (gamma-GSP) and cytosol (GSS) were prepared as described in (Curnutte, et al., suora (1987)). […] To localize the compactin-sensitive factor required for NADPH oxidase activity to either the cytosol, membrane, or both, subcellular fractions from control or compactin-treated differentiated HL-60 cells were prepared. The membrane fraction and cytosol from the cells were then analyzed using the cell-free NADPH oxidase system. […] HL-60 cells were treated ±10 μM compactin, as described herein. Untreated cytosol/membrane and compactin cytosol/membrane, etc., refer to the fractions obtained from these cells. Values are the result of duplicate determinations within each experiment. Values in parentheses represent the percent of the rate obtained for the respective untreated HL-60 sample. Whether the inhibited factor(s) was present in the membrane fraction or cytosol was determined via performing complementation experiments using cytosol or membranes from normal human neutrophils. Data from these experiments is illustrated above in Table 3 and in FIG. 2. FIG. 2 illustrates complementation analysis of O2 -formation by control versus compactin-treated HL-60 cells. O2 --formation was analyzed in a cell-free assay as described in the Examples. Line A represents untreated HL-60 membrane +neutrophil GSS; line B represents compactin-treated HL-60 membrane+neutrophil GSS; line C represents untreated HL-60 cytosol+neutrophil gamma GSP; line D represents compactin-treated HL-60 cytosol+neutrophil gamma GSP.

[4] = test system: HL-60 cells; experiment: HL-60 differentiation after DMSO (N-formyl peptide receptor and CD14 markers); format: cell-based; settings: concentrations of the studies
Protocol: Cell viability was determined by uptake of propidium iodide (537-059; Calbiochem-Behring Corp., La Jolla, CA), detected from the emission fluorescence at 625/35 nm using a DM560 dichronic mirror (Krishan, J. Cell. Biol. 66: 188-192 (1975)). Expression of N-formyl peptide receptor was determined using fluorescein-labeled N-CHONle-Leu-Phe-Nle-Tyr-Lys (Molecular Probes, Inc., Eugene, OR) essentially by the method of Sklar and Finney (Sklar and Finney, Cytometry 3: 161-165 (1982)). Specificity of ligand binding was determined in the presence of 4 mM unlabeled T-boc peptide. CD14 expression was determined using monoclonal antibody 3C10 at a dilution of 1:1,000 (see Goyert and Ferrero, in Leucocyte Typing III: White Cell Differentiation Antigens, McMichael, ed., Oxford Univ. Press, NY, pp. 613-619 (1988)), with detection using a fluorescein-labeled secondary antibody. Flow cytometric analyses were performed on a FACSIV (registered trademark of Becton-Dickinson, San Jose, CA) equipped with a 2W argon laser (Coherent Inc., Palo Alto, collected in list mode and analyzed using the Consort 30 program (Becton-Dickinson, San Jose, CA) after collecting 10,000 events.
as §3

[5] = Exp. 1, compactin cytosol + compactin membrane
[6] = Exp. 1, compactin cytosol + neutrophil membrane
[7] = Exp. 1, neutrophil cytosol + compactin membrane
[8] = Exp. 2, compactin cytosol + compactin membrane
[9] = Exp. 2, compactin cytosol + neutrophil membrane
[10] = Exp. 2, neutrophil cytosol + compactin membrane
[11] = Exp. 3, compactin cytosol + neutrophil membrane
[12] = Exp. 3, neutrophil cytosol + compactin membrane

CC[C@H](C)C(=O)O[C@H]1CCC=C2C=C[C@H](C)[C@H](CC[C@@H]3C[C@@H](O)CC(=O)O3)[C@H]21 [compactin]
N-formyl peptide receptor expression [1]: normal
CD14 expression [2]: normal
rate and extent of the burst, fractions from compactin-pretreated cells ([3]; 10 μM compactin, compactin cytosol + compactin membrane, 100 μM SDS): less than 10 % of control values
Rate of O2 formation [3, 5]: 0.1 nmol/min
Rate, percent of respective untreated HL-60 sample [3, 5]: 1%
Rate of O2 formation [3, 6]: 1.1 nmol/min
Rate, percent of respective untreated HL-60 sample [3, 6]: 33%
Rate of O2 formation [3, 7]: 1.9 nmol/min
Rate, percent of respective untreated HL-60 sample [3, 7]: 95%
Rate of O2 formation [3, 8]: 0.4 nmol/min
Rate, percent of respective untreated HL-60 sample [3, 8]: 5%
Rate of O2 formation [3, 9]: 1.5 nmol/min
Rate, percent of respective untreated HL-60 sample [3, 9]: 37%
Rate of O2 formation [3, 10]: 2.6 nmol/min
Rate, percent of respective untreated HL-60 sample [3, 10]: 100%
Rate of O2 formation [3, 11]: 2.4 nmol/min
Rate, percent of respective untreated HL-60 sample [3, 11]: 47%
Rate of O2 formation [3, 12]: 4.0 nmol/min
Rate, percent of respective untreated HL-60 sample [3, 12]: 98%
rate of O2- formation relative to untreated HL-60 cytosol ([3]; compactin cytosol + neutrophil membrane): about one-third
lag period after addition of SDS ([3]; compactin cytosol + neutrophil membrane, FIG. 2): marked increase
rate of O2- formation with membrane from compactin-treated cells ([3]; compactin membrane + neutrophil cytosol, versus untreated): essentially identical
ability of cytosol to support oxidative response ([3]; cytosol from compactin-treated cells): largely defective
ability of membrane fraction to support respiratory burst ([3]; membrane from compactin-treated cells): fully support a normal respiratory burst
ability of HL-60 cells to differentiate normally upon exposure to DMSO [4]: neither was the ability of these cells to differentiate normally
